According to patent US20080287429A1 (Z & Z Medical Holdings, Inc., priority 2007, published 2008):
Like-named read-outs stand apart in the source and are kept apart here.

Experiments:
[1] = tested on: atherosclerotic plaque in pig artery; test: Solubilization of atherosclerotic plaque material in ex vivo samples of pig artery; conditions: 50 mg/mL DCA bath, after 5 hours
Description: Early in the treatment, on removal of the sample from the bath a clear, viscous, column of fluid extended from the sample. This column of fluid continued to be apparent when samples were evaluated up to about 4 or 5 hours, after which the fluid column was no longer noted. Without wishing to be held to any one theory of operation, it was concluded that the clear fluid comprised components of the plaque. […] The sample was continuously exposed for a period of 8 days.

[2] = wild type mice, same amount of dietary HDCA; cited from earlier work
[3] = fed to C57BL/6 LDL r-KO knockout mice, relative to mice not provided HDCA; cited from earlier work
[4] = tested on: sandwich culture rat hepatocyte; conditions: cited from earlier work
[5] = tested on: sandwich culture human hepatocytes; conditions: cited from earlier work
[6] = tested on: sandwich culture rat hepatocytes; conditions: cited from earlier work
[7] = in vivo; cited from earlier work
[8] = tested on: hepatocellular uptake of bile acids; conditions: cited from earlier work
[9] = 40 mg/day rosuvastatin, cited from earlier work
[10] = tested on: bile acid uptake by hepatocyte receptors; conditions: 1 mmol/kg, cited from earlier work

**Q.** For `C[C@H](CCC(=O)O)[C@H]1CC[C@H]2[C@@H]3CC[C@@H]4C[C@H](O)CC[C@]4(C)[C@H]3C[C@H](O)[C@]12C` [DCA, deoxycholic acid], which “plaque volume decreased (macroscopic assessment)” value [1] is on record?
**A.** Its value is “about 70%”.

**Q.** Which results are given for `C[C@H](CCC(=O)O)[C@H]1CC[C@H]2[C@@H]3C[C@H](O)[C@@H]4C[C@H](O)CC[C@]4(C)[C@H]3CC[C@]12C` [HDCA, hyodeoxycholic acid]?
**A.** plasma levels [2]: up to 50 μM; rate of formation of atherosclerotic plaque [3]: reduced rate of formation

**Q.** Which “hepatic uptake and excretion of bile acids from the bile pole of the hepatocyte” value ([4]; 100 μM) does the source give for `COc1ccccc1Oc1c(NS(=O)(=O)c2ccc(C(C)(C)C)cc2)nc(-c2ncccn2)nc1OCCO` [bosentan] here?
**A.** Its value is “inhibit”.

**Q.** For `O=C1Nc2ccc(Cl)cc2[C@@](C#CC2CC2)(C(F)(F)F)O1` [efavirenz], which bile acid transport ([5]; 32 μM) is on record?
**A.** The bile acid transport was “inhibit”.

**Q.** What about the bile acid transport ([6]; 32 μM) of the same compound?
**A.** Its bile acid transport is “inhibit”.

**Q.** For `CC(=O)N1CCN(c2ccc(OCC3COC(Cn4ccnc4)(c4ccc(Cl)cc4Cl)O3)cc2)CC1` (stereo not drawn) [ketoconazole], which side effect [7] is on record?
**A.** Its side effect is “hepatotoxicity”.

**Q.** What about the “serum levels of cholic acid, taurocholic acid, and chenodeoxycholic acid” value ([8]; 25 mg/kg) of the same compound?
**A.** The value was “increase”.

**Q.** And the “serum levels of cholic, taurocholic, chenodeoxycholic, glycocholic, glycochenodeoxycholic, glycodeoxycholic, deoxycholic and taurochenodeoxycholic acid” value ([8]; 50 mg/kg)?
**A.** Its value is “increase”.

**Q.** And the “hepatocellular uptake of bile acids” value ([8]; dose related, relatively specific)?
**A.** Its value is “strongly inhibiting”.

**Q.** Which bile acid transport ([5]; 28 μM) does the source give for `CC(C)c1nc(CN(C)C(=O)N[C@H](C(=O)N[C@@H](Cc2ccccc2)C[C@H](O)[C@H](Cc2ccccc2)NC(=O)OCc2cncs2)C(C)C)cs1` [ritonavir] here?
**A.** Its bile acid transport is “inhibit”.

**Q.** What about the bile acid transport ([6]; 28 μM) of the same compound?
**A.** Its bile acid transport is “inhibit”.

**Q.** Which “reduction with respect to normalized total atheroma volume” value ([9]; after 2 years, SD=11.1) does the source give for `CC(C)c1nc(N(C)S(C)(=O)=O)nc(-c2ccc(F)cc2)c1/C=C/[C@@H](O)C[C@@H](O)CC(=O)O` [rosuvastatin] here?
**A.** Its value is 6.7%.

**Q.** And the “plaque volume reduced, most diseased segments of vessels examined” value ([9]; after 2 years, SD=13.7)?
**A.** Its value is 8.5%.

**Q.** And the “modulating LDL, HDL, and triglyceride levels” value [9]?
**A.** The value was “particularly effective”.

**Q.** Which serum bile acids [10] does the source give for `ClC=C(Cl)Cl` [trichloroethylene] here?
**A.** Its serum bile acids is “serum accumulation of bile acids”.

**Q.** And the “bile acid uptake by hepatocyte receptors” value ([10]; rather than actual cell damage)?
**A.** Its value is “reversible physiological interference”.

**Q.** Which “hepatic uptake and excretion of bile acids from the bile pole of the hepatocyte” value ([4]; 10 μM) does the source give for `Cc1c(C)c2c(c(C)c1O)CCC(C)(COc1ccc(CC3SC(=O)NC3=O)cc1)O2` (stereo not drawn) [troglitazone] here?
**A.** Its value is “inhibit”.
